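Cultured in 96-well plates, cells were exposed to test compound for 48 hours across five concentrations. At the TGI there is no net growth.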
Columns and labels:
Assay in all cases: growth of human tumour cells (NCI), 48 h
786-0 renal = test system: 786-0 renal
A498 renal = test system: A498 renal
A549 NSCLC = test system: A549 NSCLC
ACHN renal = test system: ACHN renal
BT-549 breast = test system: BT-549 breast
CAKI-1 renal = test system: CAKI-1 renal
CCRF-CEM leukemia = test system: CCRF-CEM leukemia
COLO 205 colon = test system: COLO 205 colon
DU-145 prostate = test system: DU-145 prostate
EKVX NSCLC = test system: EKVX NSCLC
HCC-2998 colon = test system: HCC-2998 colon
HCT-116 colon = test system: HCT-116 colon
HCT-15 colon = test system: HCT-15 colon
HL-60(TB) leukemia = test system: HL-60(TB) leukemia
HOP-62 NSCLC = test system: HOP-62 NSCLC
HOP-92 NSCLC = test system: HOP-92 NSCLC
HS 578T breast = test system: HS 578T breast
HT29 colon = test system: HT29 colon
IGROV1 ovarian = test system: IGROV1 ovarian
K-562 leukemia = test system: K-562 leukemia
KM12 colon = test system: KM12 colon
LOX IMVI melanoma = test system: LOX IMVI melanoma
M14 melanoma = test system: M14 melanoma
MALME-3M melanoma = test system: MALME-3M melanoma
MCF7 breast = test system: MCF7 breast
MDA-MB-231 breast = test system: MDA-MB-231 breast
MDA-MB-435 = test system: MDA-MB-435
MDA-N = test system: MDA-N
MOLT-4 leukemia = test system: MOLT-4 leukemia
NCI-H226 lung = test system: NCI-H226 lung
NCI-H23 lung = test system: NCI-H23 lung
NCI-H460 lung = test system: NCI-H460 lung
NCI-H522 lung = test system: NCI-H522 lung
NCI/ADR-RES ovarian = test system: NCI/ADR-RES ovarian
OVCAR-3 ovarian = test system: OVCAR-3 ovarian
OVCAR-4 ovarian = test system: OVCAR-4 ovarian
OVCAR-5 ovarian = test system: OVCAR-5 ovarian
OVCAR-8 ovarian = test system: OVCAR-8 ovarian
RPMI-8226 leukemia = test system: RPMI-8226 leukemia
RXF 393 renal = test system: RXF 393 renal
SF-268 CNS = test system: SF-268 CNS
SF-295 CNS = test system: SF-295 CNS
SF-539 CNS = test system: SF-539 CNS
SK-MEL-2 melanoma = test system: SK-MEL-2 melanoma
SK-MEL-28 melanoma = test system: SK-MEL-28 melanoma
SK-MEL-5 melanoma = test system: SK-MEL-5 melanoma
SK-OV-3 ovarian = test system: SK-OV-3 ovarian
SN12C renal = test system: SN12C renal
SNB-19 CNS = test system: SNB-19 CNS
SNB-75 CNS = test system: SNB-75 CNS
SR leukemia = test system: SR leukemia
SW-620 colon = test system: SW-620 colon
T-47D breast = test system: T-47D breast
TK-10 renal = test system: TK-10 renal
UACC-257 melanoma = test system: UACC-257 melanoma
UACC-62 melanoma = test system: UACC-62 melanoma
UO-31 renal = test system: UO-31 renal

CC(=O)c1[nH]c(NC(C)C)c(C(=S)Nc2ccccc2)c1N
TGI (786-0 renal): 61.8 µM
TGI (A498 renal): 82.9 µM
TGI (A549 NSCLC): 94.3 µM
TGI (ACHN renal): > 100 µM
TGI (BT-549 breast): 86.4 µM
TGI (CAKI-1 renal): > 100 µM
TGI (CCRF-CEM leukemia): 72.9 µM
TGI (COLO 205 colon): > 100 µM
TGI (DU-145 prostate): > 100 µM
TGI (EKVX NSCLC): > 100 µM
TGI (HCC-2998 colon): 75.5 µM
TGI (HCT-116 colon): 64.4 µM
TGI (HCT-15 colon): > 100 µM
TGI (HL-60(TB) leukemia): > 100 µM
TGI (HOP-62 NSCLC): > 100 µM
TGI (HOP-92 NSCLC): 92.4 µM
TGI (HS 578T breast): > 100 µM
TGI (HT29 colon): > 100 µM
TGI (IGROV1 ovarian): > 100 µM
TGI (K-562 leukemia): > 100 µM
TGI (KM12 colon): > 100 µM
TGI (LOX IMVI melanoma): 37.8 µM
TGI (M14 melanoma): 39.7 µM
TGI (MALME-3M melanoma): 89.2 µM
TGI (MCF7 breast): 42.2 µM
TGI (MDA-MB-231 breast): 66.3 µM
TGI (MDA-MB-435): 49 µM
TGI (MDA-N): 61.3 µM
TGI (MOLT-4 leukemia): > 100 µM
TGI (NCI-H226 lung): 60.4 µM
TGI (NCI-H23 lung): > 100 µM
TGI (NCI-H460 lung): > 100 µM
TGI (NCI-H522 lung): 31.7 µM
TGI (NCI/ADR-RES ovarian): > 100 µM
TGI (OVCAR-3 ovarian): > 100 µM
TGI (OVCAR-4 ovarian): > 100 µM
TGI (OVCAR-5 ovarian): > 100 µM
TGI (OVCAR-8 ovarian): 94.9 µM
TGI (RPMI-8226 leukemia): 27.9 µM
TGI (RXF 393 renal): 50.3 µM
TGI (SF-268 CNS): 65.9 µM
TGI (SF-295 CNS): > 100 µM
TGI (SF-539 CNS): > 100 µM
TGI (SK-MEL-2 melanoma): 33 µM
TGI (SK-MEL-28 melanoma): 87.7 µM
TGI (SK-MEL-5 melanoma): 42.2 µM
TGI (SK-OV-3 ovarian): > 100 µM
TGI (SN12C renal): 75.1 µM
TGI (SNB-19 CNS): 91.5 µM
TGI (SNB-75 CNS): > 100 µM
TGI (SR leukemia): 76.8 µM
TGI (SW-620 colon): > 100 µM
TGI (T-47D breast): 82.6 µM
TGI (TK-10 renal): > 100 µM
TGI (UACC-257 melanoma): 65.8 µM
TGI (UACC-62 melanoma): 53.8 µM
TGI (UO-31 renal): 77.7 µM

From PubChem BioAssay (NCI)
